Converted amounts (≈) assume the structure as drawn.
What was measured:
[1] = test system: cleavage division of Scaphechinus mirabilis; assay: Inhibition test for cell division (cleavage division); type: in vivo; details: observed 4 hours after fertilization; * = no activity at the indicated concentration
Method: (§1) Physiological activity of each dehydrodiketopiperazine will be described below. Each dehydrodiketopiperazine was tested for its inhibitory activity against cleavage division of Hemicentrotus pulcherrimus, Scaphechinus mirabilis and Temnopleurus toreumaticus as a cell division inhibitory activity. The test was carried out as described in The Journal of Antibiotics, Vol. 52, p. 1017 (1999). However, stages at which the first cleavage division occurs vary among sea urchins, so that inhibition of the cleavage division was observed after 4 hours of fertilization in the tests using Hemicentrotus pulcherrimus and Scaphechinus mirabilis, and after one hour of fertilization in the test using Temnopleurus toreumaticus, respectively.

[2] = test system: cleavage division of Temnopleurus toreumaticus; assay: as above; type: in vivo; details: observed one hour after fertilization; * = no activity at the indicated concentration
Method: as §1

[3] = test system: cleavage division of Hemicentrotus pulcherrimus; assay: as above; type: in vivo; details: observed 4 hours after fertilization; * = no activity at the indicated concentration
Method: as §1

[4] = test system: dehydrogenase (cell-free extract); assay: Amount of dehydrogenation of each substrate by enzyme (change in absorbance at 600 nm due to coenzyme); type: biochemical, Streptomyces albulus KO23; details: relative value of change in absorbance at 600 nm, CFL set to 100; substrate 0.5 mM, 37° C.
[5] = test system: tumor; details: cited from earlier work
[6] = test system: tubulin; details: cited from earlier work
[7] = test system: cancer cell transplanted model animal; details: cited from earlier work
[8] = test system: pronuclear fusion; details: Kobayashi et al. 1989; cited from earlier work
[9] = test system: bacteria; details: Fukushima et al. 1973; cited from earlier work
[10] = test system: sea urchin embryo division; details: Kanzaki et al. 1999; cited from earlier work
[11] = test system: cleavage division of Hemicentrotus pulcherrimus, Scaphechinus mirabilis and Temnopleurus toreumaticus; assay: Comparison of cell division inhibitory activity across the sea urchin tests; type: in vivo, sea urchins; details: ratio of MIC values
Method: as §1

SMILES	MIC Scaphechinus mirabilis [1]	MIC Temnopleurus toreumaticus [2]	MIC Hemicentrotus pulcherrimus [3]	Amount of dehydrogenation [4]	other results
C=CC(C)(C)c1[nH]cnc1C=C1NC(=O)C(Cc2ccccc2)NC1=O (single isomer, unassigned; (+)) [(+)-phenylahistin, 3-{[5-(1,1-dimethyl-2-propenyl)imidazole-4-yl]methylene}-6-benzylpiperazine-2,5-dione]	>13* μg/ml	6.3 µg/mL (≈ 18 µM)	13 µg/mL (≈ 37.1 µM)		
CC(C)C[C@@H]1NC(=O)[C@H](Cc2ccccc2)NC1=O [CFL]				100	
C=CC(C)(C)c1[nH]cnc1C=C1NC(=O)C(Cc2ccccc2)NC1=O (single isomer, unassigned; (-)) [(−)-phenylahistin, 3-{[5-(1,1-dimethyl-2-propenyl)imidazole-4-yl]methylene}-6-benzylpiperazine-2,5-dione]	1.6 µg/mL (≈ 4.57 µM)	0.2 µg/mL (≈ 0.571 µM)	0.39 µg/mL (≈ 1.11 µM)		antitumor activity relative to (+)-phenylahistin ([5]; times stronger than (+)-phenylahistin, approx.): 30-100 times; inhibition of the polymerization of tubulin [6]: inhibits the polymerization of tubulin; antitumor effect [7]: a certain degree of antitumor activity
O=C(O)CC1NC(=O)C(CC(=O)O)NC1=O (centres unmarked) [CDD]				14	
CC(C)CC1NC(=O)C(Cc2ccc(O)cc2)NC1=O (centres unmarked) [CLY]				14	
CC(C)/C=c1\[nH]c(=O)/c(=C/c2ccccc2)[nH]c1=O [albonoursin, 3-(Z)-benzylidene-6-(Z)isobutylidene-2,5-piperazine dione]	>13* μg/ml	>25* μg/ml	6.3 µg/mL (≈ 24.6 µM)		antitumor activity ([5]; Fukushima et al. 1973): has an antitumor activity; inhibition of pronuclear fusion [8]: acts to inhibit the pronuclear fusion; antibacterial activity [9]: antibacterial activity
O=c1[nH]c(=Cc2ccccc2)c(=O)[nH]c1=Cc1ccccc1 [tetradehydrocyclo (Phe-Phe)]					sea urchin embryo division inhibitory activity [10]: exhibits sea urchin embryo division inhibitory activity
O=C(O)CCC1NC(=O)C(CCC(=O)O)NC1=O (centres unmarked) [CEE]				14	
O=C1N[C@@H](Cc2c[nH]cn2)C(=O)N[C@H]1Cc1ccccc1 [CFH, cyclophenylalanylhistidyl]	>25* μg/ml	>25* μg/ml	>25* μg/ml	44	
C=CC(C)(C)c1[nH]cnc1/C=c1\[nH]c(=O)/c(=C/c2ccccc2)[nH]c1=O [dehydrophenylahistin, (Z, Z)-dehydrophenylahistin]	0.0061 µg/mL (≈ 0.0175 µM)	0.0061 µg/mL (≈ 0.0175 µM)	0.00038 µg/mL (≈ 0.00109 µM)		
CSCCC1NC(=O)C(CCSC)NC1=O (centres unmarked) [CMM]				27	
O=c1[nH]/c(=C\c2c[nH]cn2)c(=O)[nH]/c1=C\c1ccccc1 [(Z,Z)-tetradehydro-CFH, Z-tetradehydrocyclophenylalanylhistidyl]	1.6 µg/mL (≈ 5.71 µM)	1.6 µg/mL (≈ 5.71 µM)	0.78 µg/mL (≈ 2.78 µM)		inhibitory activity compared with CFH [11]: ≥ 15 fold

Reference: patent US20060079534A1, “Cell division inhibitor and a production method thereof” (priority 2000, published 2006)
